Laboratory results from US20050096327A1, “Novel norepinephrine reuptake inhibitors for the treatment of central nervous system disorders” (priority 2003, published 2005).
Counter-ions that a name gives are not always drawn.

Assays:
[1] = target: T1, human serotonin transporter (Homo sapiens, UniProt P31645); experiment: hSERT receptor binding ([125I]-RTI-55, membranes of transfected HEK-293 cells); settings: 50 pM [125I]-RTI-55, 90 min room temperature; IC50 converted by Cheng-Prusoff
T1 construct: host or cells: HEK-293
Protocol: Cell pastes of HEK-293 cells transfected with the human serotonin transporter were supplied by the Pfizer Ann Arbor Protein Expression and Production Group. Pellets were resuspended in 400 to 700 mL of Krebs-HEPES assay buffer (25 mM HEPES, 122 mM NaCl, 3 mM KCl, 1.2 mM MgSO4, 1.3 mM CaCl2, and 11 mM glucose, pH 7.4) with a Polytron homogenizer at Setting 7 for 30 seconds. Aliquots of membranes (˜2.5 mg/mL protein) were stored in liquid nitrogen until used.
Assays were set up in FlashPlates pre-coated with 0.1% PEI in a total volume of 250 μL containing: drug (10^−5M to 10^−12M), cell membranes, and 50 pM [^125I]-RTI-55 (Perkin Elmer, NEX-272; specific activity 2200 Ci/mmol). The reaction was incubated and gently agitated for 90 minutes at room temperature, and terminated by removal of assay volume. Plates were covered, and bound [^125I]-RTI-55 was determined using a Wallac Trilux Beta Plate Counter. Test compounds were run in duplicate, and specific binding was defined as the difference between binding in the presence and absence of 10 μM citalopram.
Excel and GraphPad Prism software were used for data calculation and analysis. IC50 values were converted to Ki values using the Cheng-Prusoff equation. The Ki values for the hSERT are reported below in Table 1.

[2] = target: T2, human norepinephrine transporter (Homo sapiens, UniProt P23975); experiment: hNET receptor binding ([125I]-RTI-55, membranes of transfected HEK-293 cells); settings: 50 pM [125I]-RTI-55, 90 min room temperature; IC50 converted by Cheng-Prusoff
T2 construct: host or cells: HEK-293
Outline: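 Competition binding on membranes from HEK-293 cells transfected with human NET, using 50 pM [125I]-RTI-55 in Krebs-HEPES pH 7.4, drug 10^−5 to 10^−12 M in duplicate, 90 min at room temperature, filtration. Nonspecific binding defined with 10 μM desipramine; IC50 converted to Ki by Cheng-Prusoff.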

T1 sequence (P31645 whole entry): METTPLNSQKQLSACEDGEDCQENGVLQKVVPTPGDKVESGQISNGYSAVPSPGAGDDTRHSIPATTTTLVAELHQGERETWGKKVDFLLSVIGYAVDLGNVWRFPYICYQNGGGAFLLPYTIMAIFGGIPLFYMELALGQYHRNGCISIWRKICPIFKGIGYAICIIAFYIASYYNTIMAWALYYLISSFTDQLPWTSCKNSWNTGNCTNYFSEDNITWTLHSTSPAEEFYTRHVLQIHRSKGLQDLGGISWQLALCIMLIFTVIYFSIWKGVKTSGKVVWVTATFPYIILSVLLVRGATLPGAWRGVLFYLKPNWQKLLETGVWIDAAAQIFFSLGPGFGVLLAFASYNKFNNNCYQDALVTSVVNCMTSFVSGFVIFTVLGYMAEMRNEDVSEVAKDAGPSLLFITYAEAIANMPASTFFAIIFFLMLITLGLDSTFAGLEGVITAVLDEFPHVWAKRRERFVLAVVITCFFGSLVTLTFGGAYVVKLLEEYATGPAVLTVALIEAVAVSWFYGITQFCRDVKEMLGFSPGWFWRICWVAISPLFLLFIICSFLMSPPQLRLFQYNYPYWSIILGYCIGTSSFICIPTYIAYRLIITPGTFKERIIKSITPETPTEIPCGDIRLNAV
T2 sequence (P23975 whole entry): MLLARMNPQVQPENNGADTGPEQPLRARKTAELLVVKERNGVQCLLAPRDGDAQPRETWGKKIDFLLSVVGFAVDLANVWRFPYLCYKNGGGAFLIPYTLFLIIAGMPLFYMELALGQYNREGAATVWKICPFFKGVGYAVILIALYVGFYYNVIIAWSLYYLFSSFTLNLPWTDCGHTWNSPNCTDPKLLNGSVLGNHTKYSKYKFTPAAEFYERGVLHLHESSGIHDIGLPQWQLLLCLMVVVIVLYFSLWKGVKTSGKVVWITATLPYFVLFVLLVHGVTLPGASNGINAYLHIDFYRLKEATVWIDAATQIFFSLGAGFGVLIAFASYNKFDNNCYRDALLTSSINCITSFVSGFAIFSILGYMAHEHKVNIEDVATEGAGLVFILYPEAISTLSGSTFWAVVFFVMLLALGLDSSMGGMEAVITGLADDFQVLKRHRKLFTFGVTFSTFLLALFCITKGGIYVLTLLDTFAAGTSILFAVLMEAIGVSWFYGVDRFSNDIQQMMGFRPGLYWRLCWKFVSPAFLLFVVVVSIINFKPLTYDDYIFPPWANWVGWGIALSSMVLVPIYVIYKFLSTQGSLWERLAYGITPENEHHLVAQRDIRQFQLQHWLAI

| Compound | melting point | Ki [1] | Ki [2] |
| --- | --- | --- | --- |
| Fc1ccc(-c2nc(N3CCNCC3)nc3ccccc23)c(Cl)c1 (as salt: salt) [Example 61, 4-(2-Chloro-4-fluoro-phenyl)-2-piperazin-1-yl-quinazoline] | 248 to 251 °C | – | – |
| CN[C@H]1CCN(c2nc(-c3ccccc3F)c3ccccc3n2)C1 (as salt: hydrochloride) [Example 35, (S)-(+)-1-[4-(2-Fluoro-phenyl)-quinazolin-2-yl]-pyrrolidin-3-yl}-methyl-amine hydrochloride] | 257 to 258 °C | – | – |
| N[C@H]1CCN(c2nc(-c3c(F)cccc3F)c3ccccc3n2)C1 [Example 96, S-1-[4-(2,6-Difluoro-phenyl)-quinazolin-2-yl]-pyrrolidin-3-ylamine] | – | 70.8 nM | 12.2 nM |
| Fc1ccc2c(-c3c(F)cccc3F)nc(N[C@H]3CCNC3)nc2c1 [Example 100, S-[4-(2,6-Difluoro-phenyl)-7-fluoro-quinazolin-2-yl]-pyrrolidin-3-yl-amine] | – | 649 nM | 29.3 nM |
| NCCCNc1nc(-c2ccc(F)cc2F)c2ccccc2n1 [Example 152, N1-[4-(2,4-Difluoro-phenyl)-quinazolin-2-yl]-propane-1,3-diamine] | – | > 10000 nM | 25.8 nM |
| Cc1ccc(F)cc1-c1nc(N2CCNCC2)nc2cc(F)ccc12 [Example 137, 7-Fluoro-4-(5-fluoro-2-methyl-phenyl)-2-piperazin-1-yl-quinazoline] | – | 190 nM | 16.6 nM |
| Clc1ccc2c(-c3ccccc3)nc(N3CCNCC3)nc2c1 [Example 89, 7-Chloro-4-phenyl-2-piperazin-1-yl-quinazoline] | – | 110 nM | 49 nM |
| CN1CCN(c2nc(-c3ccc(F)c(F)c3)c3ccc(F)cc3n2)CC1 [Example 112, 4-(3,4-Difluoro-phenyl)-7-fluoro-2-(4-methyl-piperazin-1-yl)-quinazoline] | – | 204 nM | 707 nM |
| Fc1ccc2c(-c3ccccc3)nc(N3CCNCC3)nc2c1 [Example 97, 7-Fluoro-4-phenyl-2-piperazin-1-yl-quinazoline] | – | 49.6 nM | 13.8 nM |
| CNC1CCN(c2nc(-c3cccc(F)c3F)c3ccccc3n2)CC1 [Example 158] | – | 6030 nM | 207 nM |
| Fc1ccc2c(-c3ccc(Cl)cc3Cl)nc(N3CCNCC3)nc2c1 [Example 120, 4-(2,4-Dichloro-phenyl)-7-fluoro-2-piperazin-1-yl-quinazoline] | – | 34.1 nM | 95 nM |
| Fc1ccc2nc(N3CCNCC3)nc(-c3cccc(F)c3F)c2c1 [Example 121, 4-(2,3-Difluoro-phenyl)-6-fluoro-2-piperazin-1-yl-quinazoline] | – | 32.5 nM | 15.7 nM |
| C[C@@H]1CNCCN1c1nc(-c2c(F)cccc2F)c2ccccc2n1 [Example 86, R-4-(2,6-Difluoro-phenyl)-2-(2-methyl-piperazin-1-yl)-quinazoline] | – | 88.6 nM | 14.4 nM |
| Fc1ccc(-c2nc(N3CCNCC3)c3ccccc3n2)c(F)c1 [Example 161, 2-(2,4-Difluoro-phenyl)-4-piperazin-1-yl-quinazoline] | – | 382 nM | 3480 nM |
| Fc1ccc(-c2nc(N3CCNCC3)nc3cc(F)ccc23)c(F)c1 [Example 140, 4-(2,4-Difluoro-phenyl)-7-fluoro-2-piperazin-1-yl-quinazoline] | – | 16.7 nM | 28.3 nM |
| C[C@@H]1CNCCN1c1nc(-c2cccc(F)c2F)c2ccccc2n1 [Example 87, R-4-(2,3-Difluoro-phenyl)-2-(2-methyl-piperazin-1-yl)-quinazoline] | – | 99.1 nM | 20 nM |
| Fc1ccc2nc(N3CCNCC3)nc(-c3ccccc3)c2c1 [Example 92, 6-Fluoro-4-phenyl-2-piperazin-1-yl-quinazoline] | – | 53 nM | 33.8 nM |
| C[C@H]1CNCCN1c1nc(-c2cccc(F)c2F)c2ccc(F)cc2n1 [Example 124, S-4-(2,3-Difluoro-phenyl)-7-fluoro-2-(2-methyl-piperazin-1-yl)-quinazoline] | – | 28.1 nM | 21.6 nM |
